In patent US20040248954A1, “Cycloalkylsulfanyl substituted benzo[b]thiophenes as therapeutic agents” (priority 2003, published 2004) one finds IC50 data, which are given here for 15 compounds.

Broadly, the IC50 is the point on the concentration scale where inhibition reaches its midpoint.

The assay deals with T1, p101/p110γ protein (PI3Kγ) (Homo sapiens, UniProt P48736).
T1 construct: HA; made in house; host or cells: Spodoptera frugiperda (Sf9) cells, baculovirus coinfection
Kind of assay: PI3Kγ in vitro kinase assay. The assay is classed as biochemical. As to conditions: purified recombinant p101/p110γ with G protein β1/γ2 subunits, 20 μM ATP, 25 μM PIP2, 20 minutes at room temperature. As to the method:
Spodtera frugiperda cells, grown in ESF921 media, were coinfected with baculovirus expressing a glu-tagged pO1 and baculovirus expressing an HA-tagged p110γ, at a 3:1 ratio of p101 baculovirus to p110γ baculovirus. Sf9 cells were grown to 1×10^7 total cells/mL in 10 L bioreactors and harvested 48-72 hours post infection. Samples of infected cells were then tested for expression of p101/p110γ PI3 kinase by immunoprecipitation and Western Blot analysis methods (see below).
To purify PI3Kγ, 4 volumes of room temperature hypotonic lysis buffer (1 mM MgCl2, 1 mM DTT, 5 mM EGTA, 1 mM Pefabloc, 0.5 μM aprotinin, 5 μM leupeptin, 2 μM pepstatin, 5 μM E64, pH 8) per gram of cell paste, was poured onto frozen cell pellets with stirring, then lysed in a nitrogen “bomb” at 400 psi (599HC T316, Parr Instrument Co, Moline, Ill.). NaCl was added to 150 mM, and sodium cholate was added to 1% and mixed for another 45 minutes. The lysates were clarified by centrifugation for 25 minutes at 14,000 rpm. The lysates were then loaded over anti-glu-linked Protein-G Sepaharose beads (Covance Research Products, Richmond, Calif.) using 20 mL resin/50 g cell paste. The column was washed with 15 volumes of wash buffer (1 mM DTT, 0.2 mM EGTA, 1 mM Pefabloc, 0.5 μM aprotinin, 5 μM leupeptin, 2 μM pepstatin, 5 μM E64, 150 mM NaCl, 1% sodium cholate, pH 8). PI3Kγ was eluted with 6 column volumes of wash buffer that contain 100 μg/mL of a peptide that competes for binding of the glu tag. The column fractions with the eluted protein (determined by taking OD280 readings) were collected and dialyzed in 0.2 mM EGTA, 1 mM DTT, 1 mM Pefabloc, 5 μM leupeptin, 0.5% sodium cholate, 150 mM NaCl, and 50% glycerol, pH 8. The fractions were stored at −80° C. until further use.
Spodtera frugiperda cells were coinfected with baculovirus expressing a glu-tagged G protein β1 and baculovirus expressing a G protein β2, at a 1:1 ratio of glu-tagged G protein β1 baculovirus to G protein β2 baculovirus. Sf9 cells are grown in 10 L bioreactors and harvested 48-72 hours post infection. Samples of infected cells were tested for G protein β1/β2 expression by Western Blot analysis, as described below. Cell lysates were homogenized and loaded onto a column of glu-tagged beads as in Biological Example 1 and competed off the column with a glu peptide and processed as described in Biological Example 1.
The inhibitory properties of the compounds in Table 1 were assayed in an in vitro PI3K assay. In a 96-well polypropylene plate, each well was spotted with 2 μL of 50 times the desired final concentration of compound in DMSO. Purified recombinant p101/p110γ protein (0.03 μg; ˜2.7 nM) and G protein β1/γ2 subunits (0.09 μg; ˜57.7 nM) for each reaction was combined in the assay buffer (30 mM HEPES, 100 mM NaCl, 1 mM EGTA, and 1 mM DTT). ATP and [γ-^32P-ATP] (0.09 μCi) were added to this mixture so that the final ATP concentration in the reaction was 20 μM. Lipid micelles were formed by sonicating phosphatidylinositol4,5-diphosphate (PIP2), phosphatidylethanolamine (PE), and Na-cholate in the assay buffer for 10 minutes, adding MgCl2 and incubating on ice for 20 minutes, for final concentrations of 25 μM PIP2, 300 μM PE, 0.02% Na-cholate, and 10 mM MgCl2 in the reaction. The reactions were started by adding equal volumes lipid and enzyme mixture in a total volume of 50 μL, allowed to run for 20 minutes at room temperature, and stopped with 100 μL 75 mM H3PO4. The lipid product was transderred to a glass fiber filter plate and washed with 75 mM H3PO4 severa; times. The presence of radioactive lipid product (PIP3) was measured by adding Wallac Optiphase mix to each well and counting in a Wallac 1450 Trilux plate reader (perkinElmer Life Sciences Inc., Boston, Mass. 02118). The IC50 for each compound tested is reported in μM in Table 1: […]

T1 sequence (P48736 whole entry, species assumed): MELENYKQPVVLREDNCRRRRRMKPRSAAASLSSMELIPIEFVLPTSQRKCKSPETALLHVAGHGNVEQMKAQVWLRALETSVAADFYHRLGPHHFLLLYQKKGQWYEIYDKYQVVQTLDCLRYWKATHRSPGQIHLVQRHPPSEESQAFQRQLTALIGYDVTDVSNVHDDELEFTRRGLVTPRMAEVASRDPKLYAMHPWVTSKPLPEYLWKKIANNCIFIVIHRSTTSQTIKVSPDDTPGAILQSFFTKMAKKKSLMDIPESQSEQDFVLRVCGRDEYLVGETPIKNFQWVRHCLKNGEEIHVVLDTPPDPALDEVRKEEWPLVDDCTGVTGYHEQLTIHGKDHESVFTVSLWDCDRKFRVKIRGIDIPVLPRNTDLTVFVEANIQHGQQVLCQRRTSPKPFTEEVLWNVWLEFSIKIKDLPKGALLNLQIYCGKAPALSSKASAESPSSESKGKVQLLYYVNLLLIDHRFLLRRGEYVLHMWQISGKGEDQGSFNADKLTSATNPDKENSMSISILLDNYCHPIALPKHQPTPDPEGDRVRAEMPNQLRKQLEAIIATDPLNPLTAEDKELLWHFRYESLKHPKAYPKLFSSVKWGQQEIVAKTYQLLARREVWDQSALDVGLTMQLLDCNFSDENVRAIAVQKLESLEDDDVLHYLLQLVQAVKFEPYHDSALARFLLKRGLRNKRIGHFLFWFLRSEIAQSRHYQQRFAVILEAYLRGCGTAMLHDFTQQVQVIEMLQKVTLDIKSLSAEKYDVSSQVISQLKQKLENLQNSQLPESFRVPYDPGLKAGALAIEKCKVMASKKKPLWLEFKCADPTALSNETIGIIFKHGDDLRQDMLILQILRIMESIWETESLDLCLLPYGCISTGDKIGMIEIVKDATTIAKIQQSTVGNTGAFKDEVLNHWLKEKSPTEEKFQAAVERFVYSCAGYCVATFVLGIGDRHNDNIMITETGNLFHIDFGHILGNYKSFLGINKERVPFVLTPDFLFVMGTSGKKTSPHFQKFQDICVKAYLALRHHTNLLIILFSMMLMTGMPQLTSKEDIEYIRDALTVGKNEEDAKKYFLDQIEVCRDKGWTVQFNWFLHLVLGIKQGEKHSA
T1 sequence (Q8WYR1 whole entry partner, species assumed): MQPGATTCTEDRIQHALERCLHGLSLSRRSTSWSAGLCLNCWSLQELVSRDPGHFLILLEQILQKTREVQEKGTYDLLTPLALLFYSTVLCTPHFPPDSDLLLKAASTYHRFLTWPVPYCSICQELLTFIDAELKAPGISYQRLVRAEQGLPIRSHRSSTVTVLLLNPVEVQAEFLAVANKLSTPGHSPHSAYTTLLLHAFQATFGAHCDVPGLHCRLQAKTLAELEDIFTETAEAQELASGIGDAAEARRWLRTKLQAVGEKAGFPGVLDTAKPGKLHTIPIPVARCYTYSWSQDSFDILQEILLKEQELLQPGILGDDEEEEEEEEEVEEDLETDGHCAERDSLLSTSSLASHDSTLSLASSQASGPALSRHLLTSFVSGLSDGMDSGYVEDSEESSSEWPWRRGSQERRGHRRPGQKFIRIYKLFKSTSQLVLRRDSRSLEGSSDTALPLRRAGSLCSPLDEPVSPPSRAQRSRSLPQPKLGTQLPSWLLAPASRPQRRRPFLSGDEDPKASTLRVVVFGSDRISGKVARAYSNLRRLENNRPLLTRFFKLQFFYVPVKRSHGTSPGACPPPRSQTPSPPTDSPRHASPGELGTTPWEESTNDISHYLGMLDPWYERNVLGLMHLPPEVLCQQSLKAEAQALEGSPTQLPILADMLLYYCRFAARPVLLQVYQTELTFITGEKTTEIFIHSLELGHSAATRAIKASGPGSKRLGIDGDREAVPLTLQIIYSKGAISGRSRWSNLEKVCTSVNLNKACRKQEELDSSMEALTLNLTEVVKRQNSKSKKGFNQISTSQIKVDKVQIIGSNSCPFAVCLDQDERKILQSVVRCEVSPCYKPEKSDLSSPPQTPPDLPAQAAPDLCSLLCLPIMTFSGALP

As to `COc1ccc2sc(C(=O)Nc3nnn[nH]3)c(SC3CCCCC3)c2c1` [Example 4, 3-cyclohexylsulfanyl-5-methoxy-benzo[b]thiophene-2-carboxylic acid (1H-tetrazol-5-yl)-amide], the 50% inhibitory concentration (IC50) came out at 382 nM.
The figure for `COc1cc2sc(C(=O)Nc3nnn[nH]3)c(SC3CCCCC3)c2cc1C` [Example 8, 3-Cyclohexylsulfanyl-6-methoxy-5-methyl-benzo[b]thiophene-2-carboxylic acid (1H-tetrazol-5-yl)-amide] is 47 nM.
As for `COc1cc2sc(C(=O)Nc3nnn[nH]3)c(SC3CCCC3)c2cc1OC` [Example 5, 3-cyclopentylsulfanyl-5,6-dimethoxy-benzo[b]thiophene-2-carboxylic acid (1H-tetrazol-5-yl)-amide], the IC50 is 249 nM.
The figure for `CCOc1ccc2sc(C(=O)Nc3nnn[nH]3)c(SC3CCCCC3)c2c1` [Example 10, 3-Cyclohexylsulfanyl-5-ethoxy-benzo[b]thiophene-2-carboxylic acid (1H-tetrazol-5-yl)-amide] is 1550 nM.
On to `COc1ccc2sc(C(=O)Nc3nnn[nH]3)c(SC3CCCC3)c2c1` [Example 3, 3-cyclopentylsulfanyl-5-methoxy-benzo[b]thiophene-2-carboxylic acid (1H-tetrazol-5-yl)-amide], for which the IC50 came to 1190 nM.
Then `CCOCc1cc2sc(C(=O)Nc3nnn[nH]3)c(SC3CCCCC3)c2cc1OC` [Example 13, 3-Cyclohexylsulfanyl-6-ethoxymethyl-5-methoxy-benzo[b]thiophene-2-carboxylic acid (1H-tetrazol-5-yl)-amide], with 175 nM; and `COc1cc2sc(C(=O)Nc3nnn[nH]3)c(SCC3CC3)c2cc1OC` [Example 15, 3-Cyclopropylmethylsulfanyl-5,6-dimethoxy-benzo[b]thiophene-2-carboxylic acid (1H-tetrazol-5-yl)-amide], with 243 nM.
For the compound `COc1cc2c(SC3CCCCC3)c(C(=O)Nc3nnn[nH]3)sc2cc1C` [Example 11, 3-Cyclohexylsulfanyl-5-methoxy-6-methyl-benzo[b]thiophene-2-carboxylic acid (1H-tetrazol-5-yl)-amide], the IC50 is 35 nM.
On to `COc1ccc2sc(C(=O)Nc3nnn[nH]3)c(SCC3CCCCC3)c2c1` [Example 1, 3-Cyclohexylmethylsulfanyl-5-methoxy-benzo[b]thiophene-2-carboxylic acid (1H-tetrazol-5-yl)-amide], for which the IC50 stood at 92 nM.
As for `CCOc1ccc2sc(C(=O)Nc3nnn[nH]3)c(SC3CCCC3)c2c1` [Example 9, 3-Cyclopentylsulfanyl-5-ethoxy-benzo[b]thiophene-2-carboxylic acid (1H-tetrazol-5-yl)-amide], the IC50 came out at 2130 nM.
As for `COc1cc2sc(C(=O)Nc3nnn[nH]3)c(SC3CCCCC3)c2cc1OC` [Example 6, 3-Cyclohexylsulfanyl-5,6-dimethoxy-benzo[b]thiophene-2-carboxylic acid (1H-tetrazol-5-yl)-amide], the IC50 came to 121 nM.
Consider `COc1cc2sc(C(=O)Nc3nnn[nH]3)c(SCC3CCCCC3)c2cc1OC` [Example 2, 3-cyclohexylmethylsulfanyl-5,6-dimethoxy-benzo[b]thiophene-2-carboxylic acid (1H-tetrazol-5-yl)-amide], for which the IC50 stood at 3810 nM.
For `COc1cc2c(SC3CCCCC3)c(C(=O)Nc3nnn[nH]3)sc2cc1COCc1ccccc1` [Example 14, 6-Benzyloxymethyl-3-cyclohexylsulfanyl-5-methoxy-benzo[b]thiophene-2-carboxylic acid (1H-tetrazol-5-yl)-amide], the concentration for half-maximal inhibition (IC50) turned out to be 640 nM.
With `COCc1cc2sc(C(=O)Nc3nnn[nH]3)c(SC3CCCCC3)c2cc1OC` [Example 12, 3-Cyclohexylsulfanyl-5-methoxy-6-methoxymethyl-benzo[b]thiophene-2-carboxylic acid (1H-tetrazol-5-yl)-amide], the IC50 was 495 nM.
The figure for `COc1cc2sc(C(=O)Nc3nnn[nH]3)c(SC3CCCC3)c2cc1C` [Example 7, 3-Cyclopentylsulfanyl-6-methoxy-5-methyl-benzo[b]thiophene-2-carboxylic acid (1H-tetrazol-5-yl)-amide] is 118 nM.
